Read-outs that look alike come from different tables or passages of the source. Numbered stars: 1 amine (or outer) side, 2 acyl side, 3 side chain; on linkers, the order of the positions; unused ones are H or OH. Bridge positions count the residues as written; N and C are the ends. Square brackets hold non-standard residues; d marks the D form. Peptide text beside a SMILES is read from it. * marks the point of attachment. Bip(4'-COOH) = N[C@@H](Cc1ccc(-c2ccc(C(=O)O)cc2)cc1)C(=O)O; Trp(1-CH2COOH) = N[C@@H](Cc1cn(CC(=O)O)c2ccccc12)C(=O)O; Phe(3-CF3) = N[C@@H](Cc1cccc(C(F)(F)F)c1)C(=O)O; Ala(morpholin-4-yl) = N[C@@H](CN1CCOCC1)C(=O)O; Phe(4-CONH2) = NC(=O)c1ccc(C[C@H](N)C(=O)O)cc1; Phe(4-COOH) = N[C@@H](Cc1ccc(C(=O)O)cc1)C(=O)O; Bip = N[C@@H](Cc1ccc(-c2ccccc2)cc1)C(=O)O; Abu(3R-NH2) = C[C@@H](N)[C@H](N)C(=O)O; Phe(3-Me) = Cc1cccc(C[C@H](N)C(=O)O)c1; Abu(3S-NH2) = C[C@H](N)[C@H](N)C(=O)O; Val(3-OH) = CC(C)(O)[C@H](N)C(=O)O; hPhe = N[C@@H](CCc1ccccc1)C(=O)O; Cha = N[C@@H](CC1CCCCC1)C(=O)O; Agb = N=C(N)NCC[C@H](N)C(=O)O; Suc = O=C(CCC(=O)[*:2])[*:1]; Carboxymethyl = O=C(O)C*; NMeA = CN[C@@H](C)C(=O)O; Orn = NCCC[C@H](N)C(=O)O; Dab = NCC[C@H](N)C(=O)O; Dap = NC[C@H](N)C(=O)O
Target: T1, Alexa fluor-647 labeled human PD-L1-Ig binding to Jurkat cell line over-expressing human PD-1 (Homo sapiens, UniProt Q15116)
T1 construct: expressed in transfected cells; host or cells: Jurkat
Experiment: Jurkat-PD-1 Cell Binding High-Content Screening Assay (CBA): Method 3 (Alexa fluor-647 labeled PD-L1-Ig)
Settings: Jurkat-PD-1 cells, Alexa fluor-647 labeled PD-L1-Ig 177 nM
Summary of the method: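 Readout by high-content imaging of PFA-fixed, Hoechst-stained cells after 1 h with 177 nM (final) Alexa fluor-647 PD-L1-Ig. Compound was added first to hPD-1 Jurkat cells in RPMI plus 10% FCS for 2 h at 37 °C.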

[1] = head μM, read-out: CBA Method 3 μM

T1 sequence (Q15116 25-288): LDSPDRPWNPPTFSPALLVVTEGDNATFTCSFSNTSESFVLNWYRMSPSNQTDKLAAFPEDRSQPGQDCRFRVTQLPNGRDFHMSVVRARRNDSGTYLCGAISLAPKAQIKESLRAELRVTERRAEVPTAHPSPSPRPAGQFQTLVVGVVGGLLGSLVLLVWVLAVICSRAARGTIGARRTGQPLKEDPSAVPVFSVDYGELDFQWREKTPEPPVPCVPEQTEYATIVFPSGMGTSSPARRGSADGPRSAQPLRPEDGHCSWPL

| SMILES | IC50 (nM, read-out: CBA Method 3) [nM] | IC50 [1] [nM] |
| --- | --- | --- |
| Cc1cccc(C[C@@H]2NC(=O)[C@H](CC(=O)O)NC(=O)[C@H](Cc3ccc(OCC(=O)O)cc3)NC(=O)[C@H](Cc3cn(CC(=O)O)c4ccccc34)NC(=O)CSC[C@@H](C(=O)N[C@@H](CCN)C(N)=O)NC(=O)[C@H](CCCN)NC(=O)[C@H](C(C)C)NC(=O)[C@H](CC3CCCCC3)NC(=O)[C@H](CCN)NC(=O)[C@@H](CC(C)C)NC(=O)[C@H](C)N(C)C(=O)[C@H](CCC(N)=O)NC(=O)[C@H](Cc3ccc(-c4ccccc4)cc3)NC(=O)[C@H](Cc3ccc(C(=O)O)cc3)NC2=O)c1 [Example 5171] ({CH2CO}-[Trp(1-CH2COOH)]Y(Carboxymethyl)D[Phe(3-Me)][Phe(4-COOH)][Bip]Q[NMeA][dL][Dab][Cha]V[Orn]C[Dab]-NH2; thioether N-14) | 4.4 | – |
| CC(C)C[C@@H]1NC(=O)[C@H](Cc2c[nH]c3ccccc23)NC(=O)[C@H](CC(=O)O)NC(=O)[C@H](Cc2ccc(C(=O)O)cc2)NC(=O)[C@H](Cc2ccc(OCC(=O)O)cc2)NC(=O)CSC[C@@H](C(=O)N[C@@H](CCN)C(N)=O)NC(=O)[C@H](C(C)C)NC(=O)[C@H]([C@@H](C)O)NC(=O)[C@H](CC2CCCCC2)NC(=O)[C@H](CCN)NC(=O)[C@@H](CC(C)C)NC(=O)[C@H](C)N(C)C(=O)[C@H](C(C)C)NC(=O)[C@H](Cc2ccc(-c3ccccc3)cc2)NC1=O [Example 5141] ({CH2CO}-Y(Carboxymethyl)[Phe(4-COOH)]DWL[Bip]V[NMeA][dL][Dab][Cha]TVC[Dab]-NH2; thioether N-14) | – | 20 |
| Cc1cccc(C[C@@H]2NC(=O)[C@H](CC(=O)O)NC(=O)[C@H](Cc3ccc(-c4ccc(C(=O)O)cc4)cc3)NC(=O)[C@H]([C@@H](C)O)NC(=O)CSC[C@@H](C(=O)N[C@@H](CCN)C(N)=O)NC(=O)[C@H](Cc3cnc[nH]3)NC(=O)[C@H](C(C)(C)O)NC(=O)[C@H](CC3CCCCC3)NC(=O)[C@H](CCN)NC(=O)[C@@H](CC(C)C)NC(=O)[C@H](C)N(C)C(=O)[C@H](Cc3ccc(C(=O)O)cc3)NC(=O)[C@H](Cc3ccc(-c4ccccc4)cc3)NC(=O)[C@H](Cc3ccc(-c4ccc(C(=O)O)cc4)cc3)NC2=O)c1 [Example 5131] ({CH2CO}-T[Bip(4'-COOH)]D[Phe(3-Me)][Bip(4'-COOH)][Bip][Phe(4-COOH)][NMeA][dL][Dab][Cha][Val(3-OH)]HC[Dab]-NH2; thioether N-14) | – | 190 |
| Cc1cccc(C[C@@H]2NC(=O)[C@H](CC(=O)O)NC(=O)[C@H](Cc3ccc(OCC(=O)O)cc3)NC(=O)[C@H](CCNC(=N)N)NC(=O)CSC[C@@H](C(=O)N[C@@H](CCN)C(N)=O)NC(=O)[C@H](CCCN)NC(=O)[C@H](C(C)C)NC(=O)[C@H](CC3CCCCC3)NC(=O)[C@H](CCN)NC(=O)[C@@H](CC(C)C)NC(=O)[C@H](C)N(C)C(=O)[C@H](CCC(N)=O)NC(=O)[C@H](Cc3ccc(-c4ccccc4)cc3)NC(=O)[C@H](Cc3ccc(C(=O)O)cc3)NC2=O)c1 [Example 5182] ({CH2CO}-[Agb]Y(Carboxymethyl)D[Phe(3-Me)][Phe(4-COOH)][Bip]Q[NMeA][dL][Dab][Cha]V[Orn]C[Dab]-NH2; thioether N-14) | – | 10 |
| CC(C)C[C@H]1NC(=O)[C@H](C)N(C)C(=O)[C@H](Cc2ccc(C(=O)O)cc2)NC(=O)[C@H](Cc2ccc(-c3ccccc3)cc2)NC(=O)[C@H](Cc2ccc(C(=O)O)cc2)NC(=O)[C@H](Cc2cccc(C(F)(F)F)c2)NC(=O)[C@H](CC(=O)O)NC(=O)[C@H](Cc2ccc(C(=O)O)cc2)NC(=O)[C@H](CN2CCOCC2)NC(=O)CSC[C@@H](C(=O)N[C@@H](CCN)C(N)=O)NC(=O)[C@H](CNC(=O)CCC(=O)O)NC(=O)[C@H](C(C)C)NC(=O)[C@H](CC2CCCCC2)NC(=O)[C@H](CCN)NC1=O [Example 5142] ({CH2CO}-[Ala(morpholin-4-yl)][Phe(4-COOH)]D[Phe(3-CF3)][Phe(4-COOH)][Bip][Phe(4-COOH)][NMeA][dL][Dab][Cha]V[Dap](Suc)C[Dab]-NH2; thioether N-14) | 3.3 | – |
| CC(C)C[C@H]1NC(=O)[C@H](C)N(C)C(=O)[C@H](Cc2ccc(OCC(=O)O)cc2)NC(=O)[C@H](Cc2ccc(-c3ccccc3)cc2)NC(=O)[C@H](Cc2ccc(OCC(=O)O)cc2)NC(=O)[C@H](Cc2c[nH]c3ccccc23)NC(=O)[C@H](CC(=O)O)NC(=O)[C@H](Cc2ccc(-c3ccc(C(=O)O)cc3)cc2)NC(=O)[C@H](CN2CCOCC2)NC(=O)CSC[C@@H](C(=O)N[C@@H](CCN)C(N)=O)NC(=O)[C@H](CCC(=O)O)NC(=O)[C@H](C(C)C)NC(=O)[C@H](CC2CCCCC2)NC(=O)[C@H](CCN)NC1=O [Example 5117] ({CH2CO}-[Ala(morpholin-4-yl)][Bip(4'-COOH)]DWY(Carboxymethyl)[Bip]Y(Carboxymethyl)[NMeA][dL][Dab][Cha]VEC[Dab]-NH2; thioether N-14) | 9.7 | – |
| CC(C)C[C@@H]1NC(=O)[C@H](Cc2c[nH]c3ccccc23)NC(=O)[C@H](CC(=O)O)NC(=O)[C@H](Cc2ccc(-c3ccc(C(=O)O)cc3)cc2)NC(=O)[C@H](CN2CCOCC2)NC(=O)CSC[C@@H](C(=O)N[C@@H](CCN)C(N)=O)NC(=O)[C@H](CCC(=O)O)NC(=O)[C@H](C(C)C)NC(=O)[C@H](CC(C)C)NC(=O)[C@H](CC(N)=O)NC(=O)[C@@H](CC(C)C)NC(=O)[C@H](C)N(C)C(=O)[C@H](C(C)C)NC(=O)[C@H](Cc2ccc(-c3ccccc3)cc2)NC1=O [Example 5124] ({CH2CO}-[Ala(morpholin-4-yl)][Bip(4'-COOH)]DWL[Bip]V[NMeA][dL]NLVEC[Dab]-NH2; thioether N-14) | 2.6 | – |

Results, then the molecule that gave them:

| IC50 (nM, read-out: CBA Method 3) [nM] | IC50 [1] [nM] | SMILES |
| --- | --- | --- |
| 1 | – | CC(C)C[C@H]1NC(=O)[C@H](C)N(C)C(=O)[C@H](CCC(N)=O)NC(=O)[C@H](Cc2ccc(-c3ccccc3)cc2)NC(=O)[C@H](CCc2ccccc2)NC(=O)[C@H](Cc2cccc(C(F)(F)F)c2)NC(=O)[C@H](CC(=O)O)NC(=O)[C@H](Cc2ccc(OCC(=O)O)cc2)NC(=O)[C@H]([C@@H](C)N)NC(=O)CSC[C@@H](C(=O)N[C@@H](CCN)C(N)=O)NC(=O)[C@H](CCC(=O)O)NC(=O)[C@H](C(C)C)NC(=O)[C@H](CC2CCCCC2)NC(=O)[C@H](CCN)NC1=O [Example 5215] ({CH2CO}-[Abu(3R-NH2)]Y(Carboxymethyl)D[Phe(3-CF3)][hPhe][Bip]Q[NMeA][dL][Dab][Cha]VEC[Dab]-NH2; thioether N-14) |
| 1.6 | – | CC(C)C[C@H]1NC(=O)[C@H](C)N(C)C(=O)[C@H](Cc2ccc(C(=O)O)cc2)NC(=O)[C@H](Cc2ccc(-c3ccccc3)cc2)NC(=O)[C@H](Cn2cc(C3CC3)nn2)NC(=O)[C@H](Cc2cccc(C(F)(F)F)c2)NC(=O)[C@H](CC(=O)O)NC(=O)[C@H](Cc2ccc(C(=O)O)cc2)NC(=O)[C@H]([C@@H](C)N)NC(=O)CSC[C@@H](C(=O)N[C@@H](CCN)C(N)=O)NC(=O)[C@H](CCC(=O)O)NC(=O)[C@H](C(C)C)NC(=O)[C@H](CC2CCCCC2)NC(=O)[C@H](CCN)NC1=O [Example 5251] |
| 3.8 | – | CC(C)C[C@H]1NC(=O)[C@H](C)N(C)C(=O)[C@H](Cc2ccc(C(N)=O)cc2)NC(=O)[C@H](Cc2ccc(-c3ccccc3)cc2)NC(=O)[C@H](Cc2ccc(C(=O)O)cc2)NC(=O)[C@H](Cc2cccc(C(F)(F)F)c2)NC(=O)[C@H](CC(=O)O)NC(=O)[C@H](Cc2ccc(C(=O)O)cc2)NC(=O)[C@H]([C@H](C)N)NC(=O)CSC[C@@H](C(=O)N[C@@H](CCN)C(N)=O)NC(=O)[C@H](CO)NC(=O)[C@H](C(C)(C)O)NC(=O)[C@H](CC2CCCCC2)NC(=O)[C@H](CCN)NC1=O [Example 5208] ({CH2CO}-[Abu(3S-NH2)][Phe(4-COOH)]D[Phe(3-CF3)][Phe(4-COOH)][Bip][Phe(4-CONH2)][NMeA][dL][Dab][Cha][Val(3-OH)]SC[Dab]-NH2; thioether N-14) |
| 1.7 | – | CC(C)C[C@H]1NC(=O)[C@H](C)N(C)C(=O)[C@H](CCC(N)=O)NC(=O)[C@H](Cc2ccc(-c3ccccc3)cc2)NC(=O)[C@H](CCc2ccccc2)NC(=O)[C@H](Cc2cccc(C(F)(F)F)c2)NC(=O)[C@H](CC(=O)O)NC(=O)[C@H](CCC(N)=O)NC(=O)[C@H]([C@@H](C)N)NC(=O)CSC[C@@H](C(=O)N[C@@H](CCN)C(N)=O)NC(=O)[C@H](CCCN)NC(=O)[C@H](C(C)C)NC(=O)[C@H](CC2CCCCC2)NC(=O)[C@H](CCN)NC1=O [Example 5247] ({CH2CO}-[Abu(3R-NH2)]QD[Phe(3-CF3)][hPhe][Bip]Q[NMeA][dL][Dab][Cha]V[Orn]C[Dab]-NH2; thioether N-14) |
| – | 20 | Cc1cccc(C[C@@H]2NC(=O)[C@H](CC(=O)O)NC(=O)[C@H](Cc3ccc(OCC(=O)O)cc3)NC(=O)[C@H](CC3CCCCC3)NC(=O)CSC[C@@H](C(=O)N[C@@H](CCN)C(N)=O)NC(=O)[C@H](CCCN)NC(=O)[C@H](C(C)C)NC(=O)[C@H](CC3CCCCC3)NC(=O)[C@H](CCN)NC(=O)[C@@H](CC(C)C)NC(=O)[C@H](C)N(C)C(=O)[C@H](CCC(N)=O)NC(=O)[C@H](Cc3ccc(-c4ccccc4)cc3)NC(=O)[C@H](CCc3ccccc3)NC2=O)c1 [Example 5218] ({CH2CO}-[Cha]Y(Carboxymethyl)D[Phe(3-Me)][hPhe][Bip]Q[NMeA][dL][Dab][Cha]V[Orn]C[Dab]-NH2; thioether N-14) |
| 7.2 | – | Cc1cccc(C[C@@H]2NC(=O)[C@H](CC(=O)O)NC(=O)[C@H](Cc3ccc(C(=O)O)cc3)NC(=O)[C@H](CC3CCCCC3)NC(=O)CSC[C@@H](C(=O)N[C@@H](CCN)C(N)=O)NC(=O)[C@H](CCC(=O)O)NC(=O)[C@H](C(C)C)NC(=O)[C@H](CC3CCCCC3)NC(=O)[C@H](CCN)NC(=O)[C@@H](CC(C)C)NC(=O)[C@H](C)N(C)C(=O)[C@H](Cc3ccc(C(=O)O)cc3)NC(=O)[C@H](Cc3ccc(-c4ccccc4)cc3)NC(=O)[C@H](Cc3ccc(C(=O)O)cc3)NC2=O)c1 [Example 5196] ({CH2CO}-[Cha][Phe(4-COOH)]D[Phe(3-Me)][Phe(4-COOH)][Bip][Phe(4-COOH)][NMeA][dL][Dab][Cha]VEC[Dab]-NH2; thioether N-14) |
